Laboratory results reported in patent US20230391772A1, “METHODS AND COMPOSITIONS FOR TARGETED PROTEIN DEGRADATION” (Ranok Therapeutics (Hangzhou) Co. Ltd., priority 2020, published 2023).

What was measured:
[1] = molecular target: KRAS(G12C) (Homo sapiens, UniProt P01116, G12C); experiment: KRAS(G12C)/SOS1 homogeneous time-resolved fluorescence (HTRF) assay; parameters: purchased Cisbio 63ADK000CB16PEG; details: absence of GTP, 4° C. for 3 hr, read-out: KRAS (G12C) binding
Summary of the method: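 Three-hour incubation at 4 °C of 3-fold compound dilutions (lowest 1.02 nM) with KRAS(G12C), SOS1 and detection reagents, GTP absent. Disruption of the KRAS(G12C)/SOS1 complex detected by time-resolved fluorescence.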

[2] = test system: NCI-H23 human non-small cell lung cancer; experiment: NCI-H23 CCK-8 proliferation assay; assay type: cell-based; details: NCI-H23 cells, 72 hr
Summary of the method: (§1)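 Proliferation of mutant-KRAS(G12C) cells (2 copies in MIA PaCa-2, single copy in NCI-H358/NCI-H23) measured with CCK-8 after treatment across 20 μM–1.02 nM; inhibition expressed relative to vehicle-treated wells after subtracting no-cell background.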

[3] = test system: NCI-H358 human non-small cell lung cancer; experiment: NCI-H358 CCK-8 proliferation assay; assay type: cell-based; details: NCI-H358 cells, 72 hr
Summary of the method: as §1

[4] = molecular target: T1, HSP90a protein (Homo sapiens, UniProt P07900); experiment: HSP90α-binding fluorescent polarization (FP) assay, BODIPY-labeled RNK04010 probe; details: FP competition with RNK04010 (BODIPY-labeled), 5 nM, 300 min at 25° C.
T1 construct: purchased BPS Bioscience 50298
Summary of the method: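 N-terminal HSP90a construct; tracer 5 nM final (FITC-geldanamycin or BODIPY-RNK04010, a labeled triazolone binder). Compounds 20 μM–5.2 nM, 2.5-fold steps. 25° C, 120 min (FITC) / 300 min (BODIPY). FP readout.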

[5] = test system: MIA PaCa-2 human pancreatic carcinoma; experiment: MIA PaCa-2 CCK-8 proliferation assay; assay type: cell-based; details: Homo sapiens, MIA PaCa-2, 72 h, MIA PaCa-2 cells
Summary of the method: as §1

Sequence of KRAS(G12C) (P01116 1-188 isoform P01116-2 G12C): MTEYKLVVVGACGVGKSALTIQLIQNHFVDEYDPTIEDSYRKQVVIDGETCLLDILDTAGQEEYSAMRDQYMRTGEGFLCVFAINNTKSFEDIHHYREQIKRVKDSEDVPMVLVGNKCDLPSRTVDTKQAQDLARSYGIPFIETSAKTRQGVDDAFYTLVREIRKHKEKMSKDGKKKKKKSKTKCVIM

Row | IC50 [1] | EC50 [2] | EC50 [3] | IC50 [4] | EC50 [5] | Structure (SMILES)
1 | > 1000 nM | 100 to 1000 nM | 100 to 1000 nM | < 100 nM | – | CCc1cc(-c2nnc(C(=O)NC(C)C)n2-c2ccc(CN3CCN(CC4CCN(C(=O)CCNc5nc6c(c(N7CCN(C(C)=O)CC7)n5)CCN(c5cc(O)cc7ccccc57)C6)CC4)CC3)cc2)c(O)cc1O [Compound 55, 4-(4-((4-((1-(3-((4-(4-acetylpiperazin-1-yl)-7-(3-hydroxynaphthalen-1-yl)-5,6,7,8-tetrahydropyrido[3,4-d]pyrimidin-2-yl)amino)propanoyl)piperidin-4-yl)methyl)piperazin-1-yl)methyl)phenyl)-5-(5-ethyl-2,4-dihydroxyphenyl)-N-isopropyl-4H-1,2,4-triazole-3-carboxamide, trifluoroacetic acid]
2 | > 1000 nM | 100 to 1000 nM | 100 to 1000 nM | 100 to 1000 nM | – | C=CC(=O)N1CCN(c2nc(NCCC(=O)NCC3CCC(C(=O)N4CCN(Cc5ccc(-n6c(O)nnc6-c6cc(CC)c(O)cc6O)cc5)CC4)CC3)nc3c2CCN(c2cc(O)cc4ccccc24)C3)CC1 (stereo not drawn) [Compound 23, 3-((4-(4-acryloylpiperazin-1-yl)-7-(3-hydroxynaphthalen-1-yl)-5,6,7,8-tetrahydropyrido[3,4-d]pyrimidin-2-yl)amino)-N-((4-(4-(4-(3-(5-ethyl-2,4-dihydroxyphenyl)-5-hydroxy-4H-1,2,4-triazol-4-yl)benzyl)piperazine-1-carbonyl)cyclohexyl)methyl)propanamide, trifluoroacetic acid]
3 | > 1000 nM | 100 to 1000 nM | 100 to 1000 nM | 100 to 1000 nM | – | C=CC(=O)N1CCN(c2nc(NCCC(=O)N3CCC(CN4CCN(Cc5ccc(-n6c(C(=O)NCC(F)(F)F)nnc6-c6cc(CC)c(O)cc6O)cc5)CC4)CC3)nc3c2CCN(c2cc(O)cc4ccccc24)C3)CC1 [Compound 17, 4-(4-((4-((1-(3-((4-(4-acryloylpiperazin-1-yl)-7-(3-hydroxynaphthalen-1-yl)-5,6,7,8-tetrahydropyrido[3,4-d]pyrimidin-2-yl)amino)propanoyl)piperidin-4-yl)methyl)piperazin-1-yl)methyl)phenyl)-5-(5-ethyl-2,4-dihydroxyphenyl)-N-(2,2,2-trifluoroethyl)-4H-1,2,4-triazole-3-carboxamide, trifluoroacetic acid]
4 | > 1000 nM | 100 to 1000 nM | 100 to 1000 nM | 100 to 1000 nM | – | CCC(=O)N1CCN(c2nc(NCCC(=O)N3CCC(CN4CCN(Cc5ccc(-n6c(C(=O)NC(C)C)nnc6-c6cc(CC)c(O)cc6O)cc5)CC4)CC3)nc3c2CCN(c2cc(O)cc4ccccc24)C3)CC1 [Compound 64, 5-(5-ethyl-2,4-dihydroxyphenyl)-4-(4-((4-((1-(3-((7-(3-hydroxynaphthalen-1-yl)-4-(4-propionylpiperazin-1-yl)-5,6,7,8-tetrahydropyrido[3,4-d]pyrimidin-2-yl)amino)propanoyl)piperidin-4-yl)methyl)piperazin-1-yl)methyl)phenyl)-N-isopropyl-4H-1,2,4-triazole-3-carboxamide, trifluoroacetic acid]
5 | > 1000 nM | 100 to 1000 nM | 100 to 1000 nM | 100 to 1000 nM | – | C=CC(=O)N1CCN(c2nc(NCCC(=O)N3CCC(CN4CCN(Cc5ccc(-n6c(C(=O)NCC(F)(F)F)nnc6-c6cc(CC)c(O)cc6O)cc5)CC4)CC3)nc3c2CCN(c2cccc4ccccc24)C3)C[C@H]1CC#N [Compound 76, (R)-4-(4-((4-((1-(3-((4-(4-acryloyl-3-(cyanomethyl)piperazin-1-yl)-7-(naphthalen-1-yl)-5,6,7,8-tetrahydropyrido[3,4-d]pyrimidin-2-yl)amino)propanoyl)piperidin-4-yl)methyl)piperazin-1-yl)methyl)phenyl)-5-(5-ethyl-2,4-dihydroxyphenyl)-N-(2,2,2-trifluoroethyl)-4H-1,2,4-triazole-3-carboxamide, trifluoroacetic acid]

Continued, compound first:

Row | Structure (SMILES) | IC50 [1] | EC50 [2] | EC50 [3] | IC50 [4] | EC50 [5]
6 | C=CC(=O)N1CCN(c2nc(NCCC(=O)NCc3ccc(CN4CCC(Cc5ccc(-n6c(C(=O)NCC(F)(F)F)nnc6-c6cc(C(C)C)c(O)cc6O)cc5)CC4)cc3)nc3c2CCN(c2cccc4ccccc24)C3)C[C@H]1CC#N [Compound 95, (R)-4-(4-((1-(4-((3-((4-(4-acryloyl-3-(cyanomethyl)piperazin-1-yl)-7-(naphthalen-1-yl)-5,6,7,8-tetrahydropyrido[3,4-d]pyrimidin-2-yl)amino)propanamido)methyl)benzyl)piperidin-4-yl)methyl)phenyl)-5-(2,4-dihydroxy-5-isopropylphenyl)-N-(2,2,2-trifluoroethyl)-4H-1,2,4-triazole-3-carboxamide, trifluoroacetic acid] | > 1000 nM | 100 to 1000 nM | 100 to 1000 nM | 100 to 1000 nM | –
7 | C=CC(=O)N1CCN(c2nc(NCCC(=O)N3CCC(CN4CCN(Cc5ccc(-n6c(C(=O)NCC(F)(F)F)nnc6-c6cc(C)c(O)cc6O)cc5)CC4)CC3)nc3c2CCN(c2cccc4cccc(Cl)c24)C3)C[C@H]1CC#N [Compound 79, (R)-4-(4-((4-((1-(3-((4-(4-acryloyl-3-(cyanomethyl)piperazin-1-yl)-7-(8-chloronaphthalen-1-yl)-5,6,7,8-tetrahydropyrido[3,4-d]pyrimidin-2-yl)amino)propanoyl)piperidin-4-yl)methyl)piperazin-1-yl)methyl)phenyl)-5-(2,4-dihydroxy-5-methylphenyl)-N-(2,2,2-trifluoroethyl)-4H-1,2,4-triazole-3-carboxamide, trifluoroacetic acid] | > 1000 nM | 100 to 1000 nM | 100 to 1000 nM | 100 to 1000 nM | –
8 | CCC(=O)N1CCN(c2nc(NCCC(=O)NCc3ccc(CN4CCC(Cc5ccc(-n6c(C(=O)NCC(F)(F)F)nnc6-c6cc(C(C)C)c(O)cc6O)cc5)CC4)cc3)nc3c2CCN(c2cc(O)cc4ccccc24)C3)CC1 [Compound 62, 5-(2,4-dihydroxy-5-isopropylphenyl)-4-(4-((1-(4-((3-((7-(3-hydroxynaphthalen-1-yl)-4-(4-propionylpiperazin-1-yl)-5,6,7,8-tetrahydropyrido[3,4-d]pyrimidin-2-yl)amino)propanamido)methyl)benzyl)piperidin-4-yl)methyl)phenyl)-N-(2,2,2-trifluoroethyl)-4H-1,2,4-triazole-3-carboxamide, trifluoroacetic acid] | > 1000 nM | 100 to 1000 nM | 100 to 1000 nM | 100 to 1000 nM | –
9 | C=CC(=O)N1CCN(c2nc(NCCC(=O)NCc3ccc(CN4CCC(Cc5ccc(-n6c(C(=O)NCC(F)(F)F)nnc6-c6cc(C(C)C)c(O)cc6O)cc5)CC4)cc3)nc3c2CCN(c2cc(O)cc4ccccc24)C3)CC1 [Compound 25, 4-(4-((1-(4-((3-((4-(4-acryloylpiperazin-1-yl)-7-(3-hydroxynaphthalen-1-yl)-5,6,7,8-tetrahydropyrido[3,4-d]pyrimidin-2-yl)amino)propanamido)methyl)benzyl)piperidin-4-yl)methyl)phenyl)-5-(2,4-dihydroxy-5-isopropylphenyl)-N-(2,2,2-trifluoroethyl)-4H-1,2,4-triazole-3-carboxamide, trifluoroacetic acid] | – | 100 to 1000 nM | 100 to 1000 nM | < 100 nM | 100 to 1000 nM
